Measurements: US6806265B2, “Non-nucleoside reverse transcriptase inhibitors” (priority 2002, dated 2004)
Like-named read-outs stand apart in the source and are kept apart here.

Legend:
[1] = target: T1, HIV-1 wild type reverse transcriptase (Human immunodeficiency virus type 1 group M subtype B, UniProt P03366); assay: biochemical; conditions: read-out: IC50 WT RT
T1 construct: HIV-1 wild type reverse transcriptase
Protocol: (§1) Utilizing the Reverse Transcriptase (RT) Assay described below, compounds were tested for their ability to inhibit the RNA-dependent DNA polymerase activity of HIV-1 RT. Certain specific compounds described in the Examples and in Tables 1-4, were so tested. The results of this testing appear in Table 5 as ranges of IC50 (nM) and EC50 (nM).
(§2) Reverse Transcriptase (RT) Assays

[2] = target: T2, HIV-1 RT double mutant K103N/Y181C (Human immunodeficiency virus type 1 group M subtype B, UniProt P03366, K702N/Y780C); assay: biochemical
T2 construct: HIV-1 wild type reverse transcriptase as well as the clinically significant double mutant K103N/Y181C
Protocol: as §1, §2

[3] = test system: HIV-1 double mutant K103N/Y181C; assay: microbe, parasite or virus in culture; format: cell-based; conditions: Human immunodeficiency virus 1, read-out: EC50 K103N/Y181C (nM)
[4] = RT double mutant K103N/Y181C, read-out: IC50 K103N/Y181C

SMILES	IC50 ([1]; wild type RT)	IC50 [2]	IC50 [2, 4]	EC50 [3]	IC50 [1]
CCN1c2ncc(CCOc3ccc(NC(C)=O)cc3C)cc2C(=O)N(C)c2cccnc21 [Entry 4001]	< 50 nM	50 to 100 nM			
CCN1c2ncc(CCOc3ccc(-c4cc(C)[n+]([O-])c(C)c4)cc3C)cc2C(=O)N(C)c2cccnc21 [Entry 1088]	< 50 nM		< 50 nM		
CCN1c2ncc(CCOc3ccc(-c4cc(C(=O)O)on4)cc3)cc2C(=O)N(C)c2cccnc21 [Entry 1040]	< 50 nM		> 100 nM		
CCN1c2ncc(CCOc3ccc(-c4ccnc(C)c4)cc3C)cc2C(=O)N(C)c2cccnc21 [Entry 1085]	< 50 nM		< 50 nM		
CCN1c2ncc(CCOc3ccc(Nc4ccc(C(=O)O)cn4)cc3C)cc2C(=O)N(C)c2cccnc21 [Entry 3025]		< 50 nM		10 to 50 nM	
CCN1c2ncc(CCOc3ccc(-c4cscn4)cc3)cc2C(=O)N(C)c2cccnc21 [Entry 1092]	< 50 nM		> 100 nM		
CCN1c2ncc(CCOc3ccc(-c4cccnc4C)cc3C)cc2C(=O)N(C)c2cccnc21 [Entry 1074]	< 50 nM		< 50 nM		
CCN1c2ncc(CCOc3ccc(Nc4ccccn4)cc3C)cc2C(=O)N(C)c2cccnc21 [Entry 3036]		< 50 nM		< 10 nM	
CCN1c2ncc(CCOc3ccc(-c4ccc(N)nc4C)cc3C)cc2C(=O)N(C)c2cccnc21 [Entry 1081]	< 50 nM		< 50 nM		
CCN1c2ncc(CCOc3ccc(-c4cncnc4)cc3)cc2C(=O)N(C)c2cccnc21 [Entry 1062]	< 50 nM		> 100 nM		
CCN1c2ncc(CCOc3ccc(C(=O)NCc4cc[n+]([O-])cc4)cc3C)cc2C(=O)N(C)c2cccnc21 [Entry 3003]	< 50 nM	50 to 100 nM			
CCN1c2ncc(CCOc3ccc(-c4ccc(CCC(=O)O)o4)cc3)cc2C(=O)N(C)c2cccnc21 [Entry 1048]			> 100 nM		< 50 nM
CCN1c2ncc(CCOc3cccc(-c4cccc(C(=O)O)c4)c3)cc2C(=O)N(C)c2cccnc21 [Entry 2002]	> 100 nM				
CCN1c2ncc(CCOc3ccc(-c4cc[n+]([O-])c(C)c4)cc3C)cc2C(=O)N(C)c2cccnc21 [Entry 1086]	< 50 nM		< 50 nM		
CCN1c2ncc(CCOc3ccc(-c4ccc(CC(=O)O)cc4C)cc3C)cc2C(=O)N(C)c2cccnc21 [Entry 1023]			50 to 100 nM		
CCN1c2ncc(CCOc3ccc(-c4ccc(C)[n+]([O-])c4C)cc3C)cc2C(=O)N(C)c2cccnc21 [Entry 1078]	< 50 nM		< 50 nM		
CCN1c2ncc(CCOc3ccc(-c4ccc(C(=O)O)c(C)c4)cc3C)cc2C(=O)N(C)c2cccnc21 [Entry 1017]	< 50 nM		< 50 nM		
CCN1c2ncc(CCOc3ccc(-c4cccc(C(C)C(=O)O)c4)cc3C)cc2C(=O)N(C)c2cccnc21 (centres unmarked) [Entry 1016]	< 50 nM		50 to 100 nM		
CCN1c2ncc(CCOc3ccc(-n4ccnc4)cc3C)cc2C(=O)N(C)c2cccnc21 [Entry 1098, 11-Ethyl-5,11-dihydro-8-{2-[4-(1H-imidazol-1-yl)-2-methylphenoxy]ethyl}-5-methyl-6H-dipyrido[3,2-b:2′,3′-e][1,4]diazepin-6-one]		< 50 nM		< 10 nM	
CCN1c2ncc(CCOc3ccc(-c4cc(Cl)c(C(=O)O)cc4F)cc3C)cc2C(=O)N(C)c2cccnc21 [Entry 1020]	< 50 nM		< 50 nM		
CCN1c2ncc(CCOc3ccc(N(CC(=O)O)C(C)=O)cc3C)cc2C(=O)N(C)c2cccnc21 [Entry 4002]	< 50 nM	> 100 nM			
CCN1c2ncc(CCOc3ccc(-c4ccc(C)cc4)cc3C)cc2C(=O)N(C)c2cccnc21 [Entry 1105]	< 50 nM		< 50 nM		
CCN1c2ncc(CCOc3ccc(-c4ccc(CC(=O)O)cc4Cl)cc3C)cc2C(=O)N(C)c2cccnc21 [Entry 1025]	< 50 nM		< 50 nM		
CCN1c2ncc(CCOc3ccc(-c4cc(C(=O)O)ccc4OC)cc3C)cc2C(=O)N(C)c2cccnc21 [Entry 1030]	< 50 nM		> 100 nM		
CCN1c2ncc(CCOc3ccc(-c4cc(C(=O)O)ccc4F)cc3C)cc2C(=O)N(C)c2cccnc21 [Entry 1029]	< 50 nM		50 to 100 nM		
CCN1c2ncc(CCOc3ccc(C(=O)N(C)Cc4ccc(C(=O)O)cc4)cc3C)cc2C(=O)N(C)c2cccnc21 [Entry 3006]	< 50 nM	50 to 100 nM			
CCN1c2ncc(CCOc3ccc(NS(C)(=O)=O)cc3C)cc2C(=O)N(C)c2cccnc21 [Entry 4005]	< 50 nM	< 50 nM			

SMILES	IC50 ([1]; wild type RT)	IC50 [2]	IC50 [2, 4]	EC50 [3]	IC50 [1]
CCN1c2ncc(CCOc3cccc(-c4ccccc4)c3)cc2C(=O)N(C)c2cccnc21 [Entry 2003]	< 50 nM	> 100 nM			
CCN1c2ncc(CCOc3ccc(S(=O)(=O)c4cccc(CC(=O)O)c4)cc3C)cc2C(=O)N(C)c2cccnc21 [Entry 3029]		< 50 nM		> 50 nM	
CCN1c2ncc(CCOc3ccc(-c4ccc(CC(=O)O)cc4[N+](=O)[O-])cc3C)cc2C(=O)N(C)c2cccnc21 [Entry 1027]	< 50 nM		50 to 100 nM		
CCN1c2ncc(CCOc3ccc(-c4cc[n+]([O-])cc4)cc3C)cc2C(=O)N(C)c2cccnc21 [Entry 1084]	< 50 nM		< 50 nM		
CCN1c2ncc(CCOc3ccc(-c4ncccn4)cc3)cc2C(=O)N(C)c2cccnc21 [Entry 1061]	< 50 nM		> 100 nM		
CCN1c2ncc(CCOc3ccc(-c4cc(C)nc(C)c4)cc3C)cc2C(=O)N(C)c2cccnc21 [Entry 1087]	< 50 nM		< 50 nM		
CCN1c2ncc(CCOc3ccc(-c4c[n+]([O-])ccc4C)cc3C)cc2C(=O)N(C)c2cccnc21 [Entry 1077, 11-Ethyl-5,11-dihydro-5-methyl-8-{2-[2-methyl-4-(4-methyl-1-oxido-3-pyridinyl)phenoxy]ethyl}-6H-dipyrido[3,2-b:2′,3′-e][1,4]diazepin-6-one]	< 50 nM	< 50 nM			
CCN1c2ncc(CCOc3ccc(N(C)c4ccc(C(=O)O)cc4)cc3C)cc2C(=O)N(C)c2cccnc21 [Entry 3023]	< 50 nM	50 to 100 nM			
CCN1c2ncc(CCOc3ccc(C(=O)Nc4ccc[n+]([O-])c4)cc3C)cc2C(=O)N(C)c2cccnc21 [Entry 3013]	< 50 nM	< 50 nM			
CCN1c2ncc(CCOc3ccc(-c4ccc(C(=O)O)c(F)c4)cc3C)cc2C(=O)N(C)c2cccnc21 [Entry 1018]	< 50 nM		< 50 nM		
CCN1c2ncc(CCOc3ccc(C(=O)Nc4cccc[n+]4[O-])cc3C)cc2C(=O)N(C)c2cccnc21 [Entry 3015]	< 50 nM	< 50 nM			
CCN1c2ncc(CCOc3ccc(C(=O)NCc4ccc(C(=O)O)cc4)cc3C)cc2C(=O)N(C)c2cccnc21 [Entry 3002]	< 50 nM	< 50 nM			
CCN1c2ncc(CCOc3ccc(-c4ccc(CCC(=O)O)o4)cc3C)cc2C(=O)N(C)c2cccnc21 [Entry 1049]			> 100 nM		< 50 nM
CCN1c2ncc(CCOc3ccc(-c4cnccc4C)cc3C)cc2C(=O)N(C)c2cccnc21 [Entry 1076, 11-Ethyl-5,11-dihydro-5-methyl-8-{2-[2-methyl-4-(4-methyl-3-pyridinyl)phenoxy]ethyl}-6H-dipyrido[3,2-b:2′,3′-e][1,4]diazepin-6-one]	< 50 nM	< 50 nM			
CCN1c2ncc(CCOc3ccc(-c4nc(C(=O)O)cs4)cc3)cc2C(=O)N(C)c2cccnc21 [Entry 1039]	< 50 nM		> 100 nM		
CCN1c2ncc(CCOc3ccc(-c4ccc(C(=O)O)o4)cc3)cc2C(=O)N(C)c2cccnc21 [Entry 1045]	< 50 nM		50 to 100 nM		
CCN1c2ncc(CCOc3ccc(-c4cnc(N)c(C)c4)cc3C)cc2C(=O)N(C)c2cccnc21 [Entry 1080]	< 50 nM		< 50 nM		
CCN1c2ncc(CCOc3ccc(-c4cc(F)c(O)c(F)c4)cc3C)cc2C(=O)N(C)c2cccnc21 [Entry 1103]	< 50 nM		50 to 100 nM		
CCN1c2ncc(CCOc3ccc(-c4occc4C(=O)O)cc3)cc2C(=O)N(C)c2cccnc21 [Entry 1050]	> 100 nM				
CCN1c2ncc(CCOc3ccc(NC(=O)c4ccc(Cl)nc4)cc3C)cc2C(=O)N(C)c2cccnc21 [Entry 3035]	< 50 nM	< 50 nM			
CCN1c2ncc(CCOc3ccc(-c4cc(C)ccn4)cc3C)cc2C(=O)N(C)c2cccnc21 [Entry 1065]	< 50 nM		< 50 nM		
CCN1c2ncc(CCOc3ccc(N(Cc4ccc(C(=O)O)cc4)C(C)=O)cc3C)cc2C(=O)N(C)c2cccnc21 [Entry 4003]	50 to 100 nM	> 100 nM			
CCN1c2ncc(CCOc3cccc(-c4ccc(C(=O)O)cc4)c3)cc2C(=O)N(C)c2cccnc21 [Entry 2001, 3′-[2-(11-Ethyl-6,11-dihydro-5-methyl-6-oxo-5H-dipyrido[3,2-b:2′,3′-e][1,4]diazepin-8-yl)ethoxy]-[1,1′-biphenyl]-4-carboxylic acid]	> 100 nM				
CCN1c2ncc(CCOc3ccc(-c4ccc(F)c(CC(=O)O)c4)cc3C)cc2C(=O)N(C)c2cccnc21 [Entry 1057]	< 50 nM		< 50 nM		
CCN1c2ncc(CCOc3ccc(-c4ccc(N)nc4)cc3C)cc2C(=O)N(C)c2cccnc21 [Entry 1079]	< 50 nM		< 50 nM		
CCN1c2ncc(CCOc3ccc(-c4cc(C)cnc4N)cc3C)cc2C(=O)N(C)c2cccnc21 [Entry 1082]	< 50 nM		< 50 nM		
CCN1c2ncc(CCOc3ccc(C(=O)NN)cc3C)cc2C(=O)Nc2c(C)ccnc21 [Entry 4019]	< 50 nM		50 to 100 nM		
